# In the supplement of paper PMC10307832:
# Assays:
# Assay in all cases: relative viability (nuclei count vs DMSO), 5 days (fraction); higher = more cells survive
# VX-702 + Linsitinib = compound: NC(=O)c1ccc(N(C(N)=O)c2c(F)cccc2F)nc1-c1ccc(F)cc1F [VX-702] + C[C@]1(O)C[C@@H](c2nc(-c3ccc4ccc(-c5ccccc5)nc4c3)c3c(N)nccn32)C1 [Linsitinib] (partner 1 µM)
# Procedure, shortened: (§1)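 Dosing by pin tool came one day after lung cancer cell lines were seeded in 1536-well plates, using either one drug or a fixed anchor-drug dose plus five library-drug doses (not always all listed) in √10 steps. After 5 days, nuclei were counted on 4× images. Relative viability is treated-well nuclei count divided by vehicle-well nuclei count, and values are medians of duplicate plates.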
# Dabrafenib + Alpelisib = compound: CC(C)(C)c1nc(-c2cccc(NS(=O)(=O)c3c(F)cccc3F)c2F)c(-c2ccnc(N)n2)s1 [Dabrafenib] + Cc1nc(NC(=O)N2CCC[C@H]2C(N)=O)sc1-c1ccnc(C(C)(C)C(F)(F)F)c1 [Alpelisib] (partner 2 µM)
# Procedure, shortened: as §1
# Dabrafenib + Olaparib = compound: CC(C)(C)c1nc(-c2cccc(NS(=O)(=O)c3c(F)cccc3F)c2F)c(-c2ccnc(N)n2)s1 [Dabrafenib] + O=C(c1cc(Cc2n[nH]c(=O)c3ccccc23)ccc1F)N1CCN(C(=O)C2CC2)CC1 [Olaparib] (partner 8 µM)
# Procedure, shortened: as §1
# VX-702 + Bortezomib = compound: NC(=O)c1ccc(N(C(N)=O)c2c(F)cccc2F)nc1-c1ccc(F)cc1F [VX-702] + CC(C)C[C@H](NC(=O)[C@H](Cc1ccccc1)NC(=O)c1cnccn1)B(O)O [Bortezomib] (partner 0.002 µM)
# Procedure, shortened: as §1
Cell Line,relative viability (VX-702 + Linsitinib; first compound 0.02 µM),relative viability (VX-702 + Linsitinib; first compound 0.2 µM),relative viability (VX-702 + Linsitinib; first compound 0.6325 µM),relative viability (VX-702 + Linsitinib; first compound 2 µM),relative viability (Dabrafenib + Alpelisib; first compound 0.009487 µM),relative viability (Dabrafenib + Alpelisib; first compound 0.03 µM),relative viability (Dabrafenib + Alpelisib; first compound 0.09487 µM),relative viability (Dabrafenib + Alpelisib; first compound 0.3 µM),relative viability (Dabrafenib + Olaparib; first compound 0.003 µM),relative viability (Dabrafenib + Olaparib; first compound 0.009487 µM),relative viability (Dabrafenib + Olaparib; first compound 0.03 µM),relative viability (Dabrafenib + Olaparib; first compound 0.09487 µM),relative viability (Dabrafenib + Olaparib; first compound 0.3 µM),relative viability (VX-702 + Bortezomib; first compound 0.02 µM),relative viability (VX-702 + Bortezomib; first compound 0.2 µM),relative viability (VX-702 + Bortezomib; first compound 0.6325 µM),relative viability (VX-702 + Bortezomib; first compound 2 µM),relative viability (Dabrafenib + Alpelisib; first compound 0.003 µM)
HCC-366,0.592,0.375,0.615,0.47,0.435,0.145,0.374,0.59,0.381,0.337,0.271,0.329,0.39,1.01,0.969,1.12,0.634,–
HCC-827,0.931,0.927,0.953,0.71,0.967,0.778,0.793,0.963,0.65,0.79,0.62,–,0.671,0.966,1.03,0.997,0.541,0.895
HOP-62,0.918,0.851,1.04,1.05,1,0.734,0.902,0.771,–,0.297,0.388,–,0.386,0.67,0.566,0.696,0.653,–
IA-LM,0.585,0.723,0.606,0.557,0.607,0.72,0.242,0.0678,0.873,0.743,0.831,0.687,0.554,0.787,0.796,0.872,0.919,0.613
LC-2-ad,0.778,0.799,0.922,0.885,0.824,0.891,0.835,0.882,0.69,0.668,0.709,0.647,0.698,1.08,1.08,1.12,1.22,0.907
LCLC-97TM1,0.131,0.189,0.172,0.207,0.228,0.303,–,0.258,–,0.317,0.472,0.262,0.35,0.526,0.592,0.667,0.709,–
LCLC-103H,1.23,0.954,1.12,1,1.16,0.912,0.853,0.972,0.716,0.733,0.687,0.801,0.747,1.17,0.949,1.05,1.11,0.726
LK-2,0.711,0.436,–,0.542,1.14,–,1.35,1.13,0.737,0.706,–,0.498,0.796,–,–,–,–,1.05
LOU-NH91,1.01,0.926,0.933,0.687,0.803,0.652,0.7,0.743,–,0.923,0.918,0.889,0.969,0.507,0.502,0.513,0.532,–
LU99A,0.511,0.517,0.466,0.515,0.439,0.48,0.502,0.515,0.296,0.278,0.257,0.236,0.272,1.09,1.05,1.14,0.934,0.563
LXF-289,0.941,0.961,0.931,0.96,1.03,1.02,0.991,1.06,1.1,1.12,1.07,0.892,1.07,1.03,1.03,0.998,1.02,1.02
NCI-H23,0.517,0.528,0.545,0.754,0.787,0.554,0.652,0.791,–,0.312,0.3,0.292,0.329,1.07,0.892,1.22,1.16,–
NCI-H322M,0.999,0.905,0.918,0.883,0.829,–,0.629,0.85,–,0.8,–,0.745,0.736,1.22,1.25,1.31,1.18,–
NCI-H358,0.748,0.728,0.613,0.963,1.01,0.735,1.01,1.15,0.647,0.697,0.546,0.538,0.406,–,–,–,–,–
NCI-H522,–,–,–,–,–,–,–,–,–,0.788,0.59,0.642,0.633,–,–,–,–,–
NCI-H1395,0.965,1.28,0.976,1.47,0.914,0.894,0.944,0.878,–,0.497,0.473,0.456,0.495,–,–,–,–,–
NCI-H1563,1.23,1.15,1.18,1.14,0.971,0.853,0.777,1.06,–,–,–,–,–,0.812,0.891,0.918,0.616,0.944
NCI-H1648,–,–,–,–,–,–,–,–,1.01,0.98,–,0.523,0.765,–,–,–,–,–
NCI-H1650,–,–,–,–,–,–,–,–,0.827,0.721,0.764,0.794,1.01,0.195,0.207,0.189,0.185,–
NCI-H1793,0.815,0.73,0.687,0.974,0.675,0.615,0.73,0.64,–,1.06,–,0.612,1.09,–,–,–,–,0.676
NCI-H1944,1.07,1.06,1.31,0.903,0.877,0.745,0.84,0.838,0.402,0.41,0.382,0.393,0.402,–,–,–,–,0.785
NCI-H2170,–,–,–,–,0.848,0.713,0.733,0.95,0.653,0.605,0.544,0.5,0.625,–,–,–,–,0.91
NCI-H2342,–,–,–,–,–,–,–,–,0.42,0.435,0.401,0.454,0.541,–,–,–,–,–
SK-MES-1,1.06,0.997,1.04,1.1,0.828,0.933,0.683,0.611,0.582,0.671,0.627,0.567,0.393,–,–,–,–,0.91
